According to patent publication US20260262643A1, “HERBICIDAL BENZOXAZINES” (FMC CORPORATION, priority 2022, published 2026):

What was measured:
[1] = system: ryegrass, Italian; assay: Test A postemergence; type: in vivo, Lolium multiflorum; conditions: postemergence, 10 days
How it was run: (§1)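 Weeds and crops in loam–sand blend were sprayed preemergence onto soil or postemergence at 2–10 cm (one- to two-leaf stage). Test chemicals were in a non-phytotoxic solvent with surfactant. After 10 days in the greenhouse, injury was rated visually against untreated controls on a 0 (no effect) to 100 (complete control) scale.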

[2] = system: pigweed, palmer; assay: Test A postemergence; type: in vivo, Amaranthus palmeri; conditions: postemergence, 10 days
How it was run: as §1

[3] = system: barnyardgrass; assay: Test B flooded paddy test; type: in vivo, Echinochloa crus-galli; conditions: 250 g ai/ha, Flood, 13 days, 0 to 100 scale (0 no effect, 100 complete control)
How it was run: (§2)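 Two-leaf plants, 3 cm flood, in-water application, 13-day greenhouse hold, visual 0–100 rating vs untreated checks.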

[4] = system: wheat; assay: Test A postemergence; type: in vivo, Triticum aestivum; conditions: postemergence, 10 days
How it was run: as §1

[5] = system: pigweed, palmer; assay: Test A preemergence; type: in vivo, Amaranthus palmeri
How it was run: as §1

[6] = system: corn; assay: Test A preemergence; type: in vivo, Zea mays
How it was run: as §1

[7] = system: oat, wild; assay: Test A preemergence; type: in vivo, Avena fatua
How it was run: as §1

[8] = system: foxtail, giant; assay: Test A postemergence; type: in vivo, Setaria faberi; conditions: postemergence, 10 days
How it was run: as §1

[9] = system: ducksalad; assay: Test B flooded paddy test; type: in vivo, Heteranthera limosa; conditions: 250 g ai/ha, Flood, 13 days, 0 to 100 scale (0 no effect, 100 complete control)
How it was run: as §2

[10] = system: goosegrass; assay: Test A preemergence; type: in vivo, Eleusine indica
How it was run: as §1

[11] = system: corn; assay: Test A postemergence; type: in vivo, Zea mays; conditions: postemergence, 10 days
How it was run: as §1

[12] = system: blackgrass; assay: Test A postemergence; type: in vivo, Alopecurus myosuroides; conditions: postemergence, 10 days
How it was run: as §1

[13] = system: blackgrass; assay: Test A preemergence; type: in vivo, Alopecurus myosuroides
How it was run: as §1

[14] = system: sedge, umbrella; assay: Test B flooded paddy test; type: in vivo, Cyperus difformis; conditions: 250 g ai/ha, Flood, 13 days, 0 to 100 scale (0 no effect, 100 complete control)
How it was run: as §2

[15] = system: goosegrass; assay: Test A postemergence; type: in vivo, Eleusine indica; conditions: postemergence, 10 days
How it was run: as §1

[16] = system: foxtail, giant; assay: Test A preemergence; type: in vivo, Setaria faberi
How it was run: as §1

[17] = system: soybean; assay: Test A postemergence; type: in vivo, Glycine max; conditions: postemergence, 10 days
How it was run: as §1

[18] = system: ragweed; assay: Test A preemergence; type: in vivo, Ambrosia artemisiifolia
How it was run: as §1

[19] = system: oat, wild; assay: Test A postemergence; type: in vivo, Avena fatua; conditions: postemergence, 10 days
How it was run: as §1

[20] = system: kochia; assay: Test A preemergence; type: in vivo, Bassia scoparia
How it was run: as §1

[21] = system: soybean; assay: Test A preemergence; type: in vivo, Glycine max
How it was run: as §1

[22] = system: ryegrass, Italian; assay: Test A preemergence; type: in vivo, Lolium multiflorum
How it was run: as §1

[23] = system: horseweed; assay: Test A postemergence; type: in vivo, Erigeron canadensis; conditions: postemergence, 10 days
How it was run: as §1

[24] = system: wheat; assay: Test A preemergence; type: in vivo, Triticum aestivum
How it was run: as §1

[25] = system: rice; assay: Test B flooded paddy test; type: in vivo, Oryza sativa; conditions: 250 g ai/ha, Flood, 13 days, 0 to 100 scale (0 no effect, 100 complete control)
How it was run: as §2

[26] = system: ragweed; assay: Test A postemergence; type: in vivo, Ambrosia artemisiifolia; conditions: postemergence, 10 days
How it was run: as §1

[27] = system: kochia; assay: Test A postemergence; type: in vivo, Bassia scoparia; conditions: postemergence, 10 days
How it was run: as §1

[28] = 125 g ai/ha, 0 to 100 scale, 0 no effect, 100 complete control
[29] = 500 g ai/ha, visual injury, 0 to 100 scale (0 no effect, 100 complete control)
[30] = 125 g ai/ha, visual injury after 10 days, 0 to 100 scale, 0 is no effect, 100 is complete control
[31] = 500 g ai/ha, 0 to 100 scale (0 no effect, 100 complete control), 10 days

C[C@H]1CN(C(=O)c2cccc(-n3cnc(Br)n3)c2)c2cccc(Cl)c2O1 [Compound 85]
60: Plant response rating, Pigweed, Palmer [5, 31] | Kochia plant response rating [27, 28]
50: Plant response rating, Blackgrass [12, 29] | Plant response rating, Horseweed [23, 29]
30: Blackgrass plant response rating [12, 28] | Plant response rating, Blackgrass [13, 31] | Plant response rating, Goosegrass [15, 29] | Plant response rating, Foxtail, Giant [16, 30] | Plant response rating, Oat, Wild [19, 29]
40: Plant response rating, Foxtail, Giant [8, 29]
70: Plant response rating, Ryegrass, Italian [1, 29] | Pigweed, Palmer plant response rating [2, 28] | Plant response rating, Pigweed, Palmer [5, 30]
80: Plant response rating, Pigweed, Palmer [2, 29] | Plant response rating, Goosegrass [10, 30] | Plant response rating, Kochia [20, 31]
90: Plant response rating, Foxtail, Giant [16, 31] | Plant response rating, Ryegrass, Italian [22, 30] | Plant response rating, Ryegrass, Italian [22, 31] | Plant response rating, Kochia [27, 29]
10: Ryegrass, Italian plant response rating [1, 28] | Plant response rating, Wheat [4, 29] | Plant response rating, Oat, Wild [7, 31] | Corn plant response rating [11, 28] | Plant response rating, Corn [11, 29]
20: Foxtail, Giant plant response rating [8, 28] | Oat, Wild plant response rating [19, 28] | Plant response rating, Kochia [20, 30] | Horseweed plant response rating [23, 28] | Plant response rating, Ragweed [26, 29]
100: Plant response rating, Goosegrass [10, 31] | Soybean plant response rating [17, 28] | Plant response rating, Soybean [17, 29]
0: Plant response rating, Barnyardgrass [3] | Wheat plant response rating [4, 28] | Plant response rating, Corn [6, 30] | Plant response rating, Corn [6, 31] | Plant response rating, Oat, Wild [7, 30] | Plant response rating, Ducksalad [9] | Plant response rating, Blackgrass [13, 30] | Plant response rating, Sedge, Umbrella [14] | Goosegrass plant response rating [15, 28] | Plant response rating, Ragweed [18, 30] | Plant response rating, Ragweed [18, 31] | Plant response rating, Soybean [21, 30] | Plant response rating, Soybean [21, 31] | Plant response rating, Wheat [24, 30] | Plant response rating, Wheat [24, 31] | Plant response rating, Rice [25] | Ragweed plant response rating [26, 28]
